Measured values published in ChEMBL document CHEMBL4190295, “One-pot three steps cascade synthesis of novel isoandrographolide analogues and their cytotoxic activity” (Eur J Med Chem, 2017).

Tests used:
Format in all cases: functional, cell-based
[1] = Cytotoxicity against rat ASK cells assessed as reduction in cell viability by SRB assay
P388 = assay: Cytotoxicity against mouse P388 cells assessed as reduction in cell viability by SRB assay
KB = assay: Cytotoxicity against human KB cells assessed as reduction in cell viability by SRB assay
A549 = assay: Cytotoxicity against human A549 cells assessed as reduction in cell viability by SRB assay
MCF7 = assay: Cytotoxicity against human MCF7 cells assessed as reduction in cell viability by SRB assay
HT-29 = assay: Cytotoxicity against human HT-29 cells assessed as reduction in cell viability by SRB assay

CC(=O)O[C@@H]1CC[C@]2(C)[C@H](CC[C@]3(CNc4ccc(Br)cc4)O[C@H](C4=CCOC4=O)C[C@H]32)[C@]1(C)CO[Si](c1ccccc1)(c1ccccc1)C(C)(C)C
IC50 [1]: > 50 µM | IC50 (P388): 48.3 µM | IC50 (KB): > 50 µM | IC50 (A549): 47.8 µM | IC50 (MCF7): > 50 µM | IC50 (HT-29): > 50 µM

CC(=O)OC[C@@]1(C)[C@H]2CC[C@]3(CNc4ccc(Br)cc4)O[C@H](C4=CCOC4=O)C[C@H]3[C@]2(C)CC[C@H]1OC(C)=O
IC50 [1]: 8.4 µM | IC50 (P388): 7.47 µM | IC50 (KB): 21.1 µM | IC50 (A549): 6.14 µM | IC50 (MCF7): 6.93 µM | IC50 (HT-29): 6.09 µM

C=C1CC[C@@H]2[C@](C)(CO)[C@H](O)CC[C@@]2(C)[C@@H]1C/C=C1/C(=O)OC[C@H]1O [ANDROGRAPHOLIDE]
IC50 [1]: 16.2 µM | IC50 (P388): 2.25 µM | IC50 (KB): 27.4 µM | IC50 (A549): 27.9 µM | IC50 (MCF7): 15.4 µM | IC50 (HT-29): 9.34 µM

CC(=O)O[C@@H]1CC[C@]2(C)[C@H](CC[C@]3(CNc4ccc(Br)cc4)O[C@H](C4=CCOC4=O)C[C@H]32)[C@]1(C)CO[Si](C)(C)C(C)(C)C
IC50 [1]: 7.35 µM | IC50 (P388): 6.39 µM | IC50 (KB): 25.7 µM | IC50 (A549): 15 µM | IC50 (MCF7): 12.9 µM | IC50 (HT-29): 27.7 µM

CC(=O)O[C@@H]1CC[C@]2(C)[C@H](CC[C@]3(CNc4ccccc4)O[C@H](C4=CCOC4=O)C[C@H]32)[C@]1(C)CO[Si](C)(C)C(C)(C)C
IC50 [1]: 5.94 µM | IC50 (P388): 5.19 µM | IC50 (KB): 21.2 µM | IC50 (A549): 7.8 µM | IC50 (MCF7): 5.44 µM | IC50 (HT-29): 8.5 µM

CC(=O)O[C@@H]1CC[C@]2(C)[C@H](CC[C@]3(CNc4ccccc4F)O[C@H](C4=CCOC4=O)C[C@H]32)[C@]1(C)CO[Si](c1ccccc1)(c1ccccc1)C(C)(C)C
IC50 [1]: 39.7 µM | IC50 (P388): > 50 µM | IC50 (KB): > 50 µM | IC50 (A549): > 50 µM | IC50 (MCF7): > 50 µM | IC50 (HT-29): > 50 µM

CC(=O)O[C@@H]1CC[C@]2(C)[C@H](CC[C@]3(CNc4cccc(F)c4)O[C@H](C4=CCOC4=O)C[C@H]32)[C@]1(C)CO[Si](C(C)C)(C(C)C)C(C)C
IC50 [1]: 6.91 µM | IC50 (P388): 7.95 µM | IC50 (KB): 32.9 µM | IC50 (A549): 24.5 µM | IC50 (MCF7): 12.7 µM | IC50 (HT-29): 30.1 µM

CC(=O)O[C@@H]1CC[C@]2(C)[C@H](CC[C@]3(CNc4ccc(Br)cc4)O[C@H](C4=CCOC4=O)C[C@H]32)[C@]1(C)CO[Si](C(C)C)(C(C)C)C(C)C
IC50 [1]: 29.7 µM | IC50 (P388): 40.5 µM | IC50 (KB): > 50 µM | IC50 (A549): > 50 µM | IC50 (MCF7): > 50 µM | IC50 (HT-29): > 50 µM

CC(=O)O[C@@H]1CC[C@]2(C)[C@H](CC[C@]3(CNc4cccc(F)c4)O[C@H](C4=CCOC4=O)C[C@H]32)[C@]1(C)COC(c1ccccc1)(c1ccccc1)c1ccccc1
IC50 [1]: > 50 µM | IC50 (P388): > 50 µM | IC50 (KB): > 50 µM | IC50 (A549): > 50 µM | IC50 (MCF7): > 50 µM | IC50 (HT-29): > 50 µM

CC(=O)O[C@@H]1CC[C@]2(C)[C@H](CC[C@]3(CNc4ccccc4)O[C@H](C4=CCOC4=O)C[C@H]32)[C@]1(C)CO[Si](c1ccccc1)(c1ccccc1)C(C)(C)C
IC50 [1]: 9.32 µM | IC50 (P388): 45.3 µM | IC50 (KB): > 50 µM | IC50 (A549): > 50 µM | IC50 (MCF7): > 50 µM | IC50 (HT-29): > 50 µM

COc1ccc(NC[C@]23CC[C@@H]4[C@](C)(COC(c5ccccc5)(c5ccccc5)c5ccccc5)[C@H](OC(C)=O)CC[C@@]4(C)[C@@H]2C[C@@H](C2=CCOC2=O)O3)cc1OC
IC50 [1]: 6.51 µM | IC50 (P388): 30.5 µM | IC50 (KB): > 50 µM | IC50 (A549): > 50 µM | IC50 (MCF7): 23.1 µM | IC50 (HT-29): > 50 µM

CC(=O)O[C@@H]1CC[C@]2(C)[C@H](CC[C@]3(CNc4ccc(Br)cc4)O[C@H](C4=CCOC4=O)C[C@H]32)[C@]1(C)COC(c1ccccc1)(c1ccccc1)c1ccccc1
IC50 [1]: > 50 µM | IC50 (P388): > 50 µM | IC50 (KB): > 50 µM | IC50 (A549): > 50 µM | IC50 (MCF7): > 50 µM | IC50 (HT-29): > 50 µM

COc1ccc(NC[C@]23CC[C@@H]4[C@](C)(CO[Si](C)(C)C(C)(C)C)[C@H](OC(C)=O)CC[C@@]4(C)[C@@H]2C[C@@H](C2=CCOC2=O)O3)cc1OC
IC50 [1]: 5.13 µM | IC50 (P388): 5.49 µM | IC50 (KB): 11.5 µM | IC50 (A549): 5.3 µM | IC50 (MCF7): 5.4 µM | IC50 (HT-29): 6.16 µM

CC(=O)OC[C@@]1(C)[C@H]2CC[C@]3(CNc4cccc(F)c4)O[C@H](C4=CCOC4=O)C[C@H]3[C@]2(C)CC[C@H]1OC(C)=O
IC50 [1]: 22.3 µM | IC50 (P388): 6.85 µM | IC50 (KB): 20.8 µM | IC50 (A549): 6.52 µM | IC50 (MCF7): 7.41 µM | IC50 (HT-29): 5.87 µM

COc1ccc(NC[C@]23CC[C@@H]4[C@](C)(CO[Si](C(C)C)(C(C)C)C(C)C)[C@H](OC(C)=O)CC[C@@]4(C)[C@@H]2C[C@@H](C2=CCOC2=O)O3)cc1OC
IC50 [1]: 4.61 µM | IC50 (P388): 4.98 µM | IC50 (KB): 17.9 µM | IC50 (A549): 6.08 µM | IC50 (MCF7): 4.7 µM | IC50 (HT-29): 5.24 µM

CC(=O)O[C@@H]1CC[C@]2(C)[C@H](CC[C@]3(CNc4ccccc4F)O[C@H](C4=CCOC4=O)C[C@H]32)[C@]1(C)COC(c1ccccc1)(c1ccccc1)c1ccccc1
IC50 [1]: > 50 µM | IC50 (P388): > 50 µM | IC50 (KB): > 50 µM | IC50 (A549): > 50 µM | IC50 (MCF7): > 50 µM | IC50 (HT-29): > 50 µM

CC(=O)O[C@@H]1CC[C@]2(C)[C@H](CC[C@]3(CNc4ccccc4F)O[C@H](C4=CCOC4=O)C[C@H]32)[C@]1(C)CO[Si](C)(C)C(C)(C)C
IC50 [1]: 3.33 µM | IC50 (P388): 4.56 µM | IC50 (KB): 6.49 µM | IC50 (A549): 6.1 µM | IC50 (MCF7): 4.45 µM | IC50 (HT-29): 5.59 µM

COc1ccc(NC[C@]23CC[C@@H]4[C@](C)(COC(C)=O)[C@H](OC(C)=O)CC[C@@]4(C)[C@@H]2C[C@@H](C2=CCOC2=O)O3)cc1OC
IC50 [1]: > 50 µM | IC50 (P388): 28.8 µM | IC50 (KB): > 50 µM | IC50 (A549): > 50 µM | IC50 (MCF7): > 50 µM | IC50 (HT-29): 24.1 µM

CC(=O)O[C@@H]1CC[C@]2(C)[C@H](CC[C@]3(CNc4ccccc4)O[C@H](C4=CCOC4=O)C[C@H]32)[C@]1(C)CO[Si](C(C)C)(C(C)C)C(C)C
IC50 [1]: 6.1 µM | IC50 (P388): 6.54 µM | IC50 (KB): 18.8 µM | IC50 (A549): 9.43 µM | IC50 (MCF7): 8.33 µM | IC50 (HT-29): 17.5 µM

CC(=O)O[C@@H]1CC[C@]2(C)[C@H](CC[C@]3(CNc4cccc(F)c4)O[C@H](C4=CCOC4=O)C[C@H]32)[C@]1(C)CO[Si](c1ccccc1)(c1ccccc1)C(C)(C)C
IC50 [1]: 44.8 µM | IC50 (P388): > 50 µM | IC50 (KB): > 50 µM | IC50 (A549): > 50 µM | IC50 (MCF7): > 50 µM | IC50 (HT-29): > 50 µM

CC(=O)OC[C@@]1(C)[C@H]2CC[C@]3(CNc4ccccc4F)O[C@H](C4=CCOC4=O)C[C@H]3[C@]2(C)CC[C@H]1OC(C)=O
IC50 [1]: 27.8 µM | IC50 (P388): 7.5 µM | IC50 (KB): 26.5 µM | IC50 (A549): 8.45 µM | IC50 (MCF7): 11.8 µM | IC50 (HT-29): 6.5 µM

COc1ccc(NC[C@]23CC[C@@H]4[C@](C)(CO[Si](c5ccccc5)(c5ccccc5)C(C)(C)C)[C@H](OC(C)=O)CC[C@@]4(C)[C@@H]2C[C@@H](C2=CCOC2=O)O3)cc1OC
IC50 [1]: 9.37 µM | IC50 (P388): 27.5 µM | IC50 (KB): > 50 µM | IC50 (A549): 48.6 µM | IC50 (MCF7): 35.8 µM | IC50 (HT-29): > 50 µM

Cc1c2ccncc2c(C)c2c1[nH]c1ccccc12 [ELLIPTECINE]
IC50 [1]: 2.17 µM | IC50 (P388): 1.34 µM | IC50 (KB): 1.87 µM | IC50 (A549): 1.2 µM | IC50 (MCF7): 1.53 µM | IC50 (HT-29): 2.06 µM

CC(=O)OC[C@@]1(C)[C@H]2CC[C@]3(CNc4ccccc4)O[C@H](C4=CCOC4=O)C[C@H]3[C@]2(C)CC[C@H]1OC(C)=O
IC50 [1]: > 50 µM | IC50 (P388): 40 µM | IC50 (KB): > 50 µM | IC50 (A549): > 50 µM | IC50 (MCF7): > 50 µM | IC50 (HT-29): 25.7 µM

CC(=O)O[C@@H]1CC[C@]2(C)[C@H](CC[C@]3(CNc4cccc(F)c4)O[C@H](C4=CCOC4=O)C[C@H]32)[C@]1(C)CO[Si](C)(C)C(C)(C)C
IC50 [1]: 6.1 µM | IC50 (P388): 6.44 µM | IC50 (KB): 27.4 µM | IC50 (A549): 21.5 µM | IC50 (MCF7): 8.64 µM | IC50 (HT-29): 26.2 µM

CC(=O)O[C@@H]1CC[C@]2(C)[C@H](CC[C@]3(CNc4ccccc4)O[C@H](C4=CCOC4=O)C[C@H]32)[C@]1(C)COC(c1ccccc1)(c1ccccc1)c1ccccc1
IC50 [1]: 29.1 µM | IC50 (P388): > 50 µM | IC50 (KB): > 50 µM | IC50 (A549): > 50 µM | IC50 (MCF7): > 50 µM | IC50 (HT-29): > 50 µM

CC(=O)O[C@@H]1CC[C@]2(C)[C@H](CC[C@]3(CNc4ccccc4F)O[C@H](C4=CCOC4=O)C[C@H]32)[C@]1(C)CO[Si](C(C)C)(C(C)C)C(C)C
IC50 [1]: 8.05 µM | IC50 (P388): 21.4 µM | IC50 (KB): 30.8 µM | IC50 (A549): 21 µM | IC50 (MCF7): 15.3 µM | IC50 (HT-29): 30.2 µM
